Results published in US20040171824A1, “A Lac operator-repressor system” (priority 2001, published 2004).

Assays:
[1] = tested on: tyrosinase expression in Tyr^lacO, LacI double transgenic embryos and pups; test: Transplacental IPTG regulation and reversibility of pigmentation in embryonic and newborn double transgenic mice; format: in vivo, mouse
From the text: To determine if lac elements could regulate pigmentation during embryogenesis and if IPTG could act transplacentally, the pigmentation in the developing retinal pigment epithelium of embryonic and newborn mice was investigated. At E9, tyrosinase activity in the embryonic eye of wild type mice begins to deposit pigment in the developing retinal pigment epithelium. At E12.5, the mouse RPE clearly is pigmented. Tyr^lacO (43) transgenic mice recapitulate this developmental event. A distinct band of pigmentation surrounding the central lens is seen in the Tyrosinase transgenic embryo that is not seen in the nontransgenic albino.
Finally, the reversibility of the system was tested by switching the Tyrosinase transgene on after it had been off, or off after it had been on, in the same animal. The phenotypes of eyes of newborn mice were compared to the phenotypes of embryonic eyes of mice of the same genotype. […] However, at E12.5, this double transgenic pup has the albino phenotype. […] Reversibility was also observed with regards to switching off the tyrosinase gene after it had intially been on. […] As expected, the eyes remain pigmented due to the low turnover of cells and melanosomes in the RPE.
For embryonic eyes, pregnant females were euthanized at E12.5, and the embryos removed. The head of each embryo was fixed in 2% paraformaldehyde in 0.1 M phosphate (pH 7.4), and the lower half was taken for genotyping. Tyrosinase activity was derepressed by replacing the drinking water with a 10 mM solution of IPTG (changed every four days). To allow for the normal pattern of tyrosinase expression during development, the female was started on 10 mM IPTG at day 7 of pregnancy.

[2] = tested on: tyrosinase expression in Tyr^lacO, LacI double transgenic mice; test: IPTG derepression of tyrosinase expression (pigmentation) in Tyr^lacO, LacI double transgenic mice; format: in vivo, mouse
Procedure: The lac operator-repressor system of the present invention was tested in mice using a regulatable version of a well-characterized visible marker gene, tyrosinase. Tyrosinase is the protein product of the albino (c) locus (Kwon et al., PNAS 84, 7473-7477 (1987)), and is the enzyme that catalyzes the first step in melanin biosynthesis. The target transgene consists of the wildtype murine tyrosinase cDNA under the control of the murine tyrosinase promoter modified to contain lac operator sequences (See FIG. 2). The major transcription start site in the tyrosinase promoter is 83 bp upstream of the start codon. To maintain the endogenous spacing of promoter elements in the critical region between the start of transcription and the start of translation, a PCR-based, site-directed mutagenesis was used to change 25 bp of the endogenous sequence to create a primary lac operator centered at 59 bp upstream of the start of translation. Additional operators were inserted 176 bp and 526 bp upstream of the primary operator (FIG. 2). Mice containing this modified Tyrosinase transgene resemble pigmented animals previously described (Methot et al., nucleic Acids Research, 23, 4551-4556 (1995)) that had been microinjected with an unregulatable version of the same transgene. Two lines of pigmented Tyrosinase transgenic mice were established containing the regulatable transgene. […]

[3] = Tolerability of IPTG in the drinking water of Tyr^lacO, LacI double-transgenic mice; format: in vivo, mouse
Procedure: Tyrosinase activity was derepressed by replacing the drinking water with a 10 mM solution of IPTG (changed every four days). To allow for the normal pattern of tyrosinase expression during development, the female was started on 10 mM IPTG at day 7 of pregnancy.

[4] = cited from earlier work
[5] = tested on: mouse L-cells stably transfected with lacI expression vector; conditions: MSV-CAT reporter with lac operators; cited from earlier work

## CC(C)S[C@@H]1O[C@H](CO)[C@H](O)[C@H](O)[C@H]1O [IPTG, isopropyl-β-D-thiogalactoside]
[1]; double-transgenic embryo at E12.5, mother on 10 mM IPTG in drinking water during pregnancy
  pigmentation of the embryonic RPE: not when the mother was treated with IPTG during pregnancy
[1]; mother given IPTG in drinking water
  placental transfer: can cross the placenta
[1]; mother started on IPTG at E12.5 of pregnancy
  switching tyrosinase expression on after a period of silencing (eye pigmentation at birth): able to switch tyrosinase expression on
[1]; pup's mother taken off IPTG at P9
  coat phenotype after removal of IPTG: reversion of the coat phenotype to albino
[2]; double transgenic animal, 10 mM IPTG in the drinking water
  tyrosinase expression / coat phenotype: derepressed tyrosinase expression
[2]; double transgenic mouse treated with IPTG, eye sections
  pigmentation in the retinal pigment epithelium (RPE): restoration of pigmentation in the RPE to levels indistinguishable from the nonrepressed state
[3]; 10 mM IPTG in drinking water for up to 8 months
  deleterious effects on long-term administration: no deleterious effects
[3]; IPTG in the drinking water
  toxicity of the circulating level that derepresses target gene expression: completely nontoxic
[4]; adult animal, spleen, liver, lung, kidney, brain, adipose tissue
  tissue distribution: widespread
[4]; average
  nuclear uptake of inducer, of the total cell uptake: 18%
[4]; in vivo
  clearance from the blood: rapidly cleared from the blood
  metabolism in the animal: not metabolized
  relative concentration of inducer to repressor molecules versus that required for maximal induction in E. coli: ~1000 fold
  time functionally active after introduction into the bloodstream: at least 4 hours
[4]; uptake by facilitated transport into tissues of the animal
  time to reach high levels in cells of tissues: 2 to 4 h
[5]
  CAT activity: marked de-repression of CAT activity
